The target in experiment [1] is T1, truncated His-MBP-Tev-KLHDC2 (residues 1-363) (Homo sapiens, UniProt Q9Y2U9).
T1 construct: truncated His -MBP-Tev-KLHDC2 (residues 1-363) purified from E. coli; made in house; host or cells: E. coli
T1 sequence (Q9Y2U9 1-363): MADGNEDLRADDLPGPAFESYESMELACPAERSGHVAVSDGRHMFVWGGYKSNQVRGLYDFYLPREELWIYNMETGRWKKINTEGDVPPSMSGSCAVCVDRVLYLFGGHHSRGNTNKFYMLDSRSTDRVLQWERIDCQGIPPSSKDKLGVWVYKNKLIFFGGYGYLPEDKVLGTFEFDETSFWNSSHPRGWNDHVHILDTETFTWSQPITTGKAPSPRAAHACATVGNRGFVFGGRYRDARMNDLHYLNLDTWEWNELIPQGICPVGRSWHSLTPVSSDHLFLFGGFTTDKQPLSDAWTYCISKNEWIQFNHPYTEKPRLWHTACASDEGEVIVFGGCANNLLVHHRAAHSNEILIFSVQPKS
The experiment is described as follows: KLHDC2 HTRF binding assay. The following applies: 1 nM KLHDC2 (residues 1-363), fluorescein-labeled diglycine peptide probe. On the technique in general: Time-resolved FRET reads energy transfer from a long-lived donor to a nearby acceptor.

The target in experiment [2] is T1, truncated His-MBP-Tev-KLHDC2 (residues 1-363). The experiment is described as follows: KLHDC2 FP competition binding assay. The following applies: 15 nM KLHDC2 (residues 1-363), 10 nM fluorescein-labeled diglycine peptide probe, read-out: KLHDC2 binding Human FP: average external IC50.
Protocol: FP competition binding assays were performed using 15 nM truncated His -MBP-Tev-KLHDC2 (residues 1-363) purified from E. coli, 10 nM fluorescein-labeled diglycine peptide probe, and test compounds in assay buffer consisting of 50 mM HEPES-Na pH 7.5, 100 mM NaCl, 2 mM DTT, 0.005% Tween-20 with a final volume of 20 uL. Compound stocks were dissolved at 10 mM in 100% DMSO and 11 point titration with 3 fold serial dilution was performed in black, flat bottom 384 well microplates. Plates were incubated at room temperature for 30 minutes. Plates were centrifuged at 1000 rpm for 1 min, data were collected using an Envision plate reader in fluorescence polarization mode with excitation filter FITC FP at 480 nm, emission filter FITC FP P-pol at 535 nm and FITC FP S-pol at 535 nm. FP signal was calculated using the equation (mP=1000*(S-G*P)/(S+G*P), G-factor=1.0) and % Inhibition was calculated using no-protein controls for 100% inhibition and DMSO only reactions for 0l % inhibition (yes).

pIC50: −log10 of the molar value.

What is called pIC50 is the negative decadic logarithm of the IC50, by convention in mol/L. Regarding `CS(=O)(=O)c1ccc(-c2cccc(C(=O)Nc3ccc(=O)n(CC(=O)O)c3)c2)cc1` [I-192], the pIC50 in experiment [1] and in experiment [2] was less than 5.30 throughout.

For the compound `CNC(=O)c1ccc(-c2cccc(C(=O)Nc3ccc(=O)n(CC(=O)O)c3)c2)cc1` [I-193], the pIC50 in experiment [1] and in experiment [2] was less than 5.30 in each case.

On to `CS(=O)(=O)c1cccc(-c2cccc(C(=O)Nc3ccc(=O)n(CC(=O)O)c3)c2)c1` [I-194], for which the pIC50 in experiment [1] and in experiment [2] was less than 5.30 throughout.

With `CNC(=O)c1cccc(-c2cccc(C(=O)Nc3ccc(=O)n(CC(=O)O)c3)c2)c1` [I-195], the pIC50 in experiment [1] and in experiment [2] was less than 5.30 each time.

With `O=C(O)Cn1cc(NC(=O)c2ccc(-c3ccccc3Cl)cc2)ccc1=O` [I-197], the negative logarithm of the IC50 (pIC50) in experiment [1] and in experiment [2] was less than 5.30 throughout.

For the compound `O=C(O)Cn1cc(NC(=O)c2ccc(-c3cccnc3)cc2)ccc1=O` [I-198], the results for the pIC50 in experiment [1] and in experiment [2] were 5.30 to 6.30 and less than 5.30, respectively.

`O=C(O)Cn1cc(NC(=O)c2cccc(-c3ccc(C(F)(F)F)cc3)c2)ccc1=O` [I-199]: the pIC50 in experiment [1] and in experiment [2] was less than 5.30 in each case.

Turning to `O=C(O)Cn1cc(NC(=O)c2cccc(-c3cccc(C(F)(F)F)c3)c2)ccc1=O` [I-200, 2-(2-oxo-5-(3′-(trifluoromethyl)-[1,1′-biphenyl]-3-carboxamido)pyridin-1 (2H)-yl) acetic acid], the pIC50 in experiment [1] and in experiment [2] was less than 5.30 each time.

Consider `O=C(O)Cn1cc(NC(=O)c2cccc(-c3cncnc3)c2)ccc1=O` [I-201], for which the negative logarithm of the IC50 (pIC50) in experiment [1] and in experiment [2] was 5.30 to 6.30 in each case.

Regarding `Cc1ccc(C(=O)Nc2ccc(=O)n(CC(=O)O)c2)cc1-c1cccnc1` [I-202], the pIC50 in experiment [1] is 6.30 to 7.30; in experiment [2] it was 5.30 to 6.30.

Consider `COc1cc(-c2ccccc2)ccc1C(=O)Nc1ccc(=O)n(CC(=O)O)c1` [I-203], for which the pIC50 in experiment [1] and in experiment [2] was 5.30 to 6.30 each time.

`COc1cc(-c2cccnc2)ccc1C(=O)Nc1ccc(=O)n(CC(=O)O)c1` [I-204]: the pIC50 was 5.30 to 6.30 in experiment [1] and less than 5.30 in experiment [2].

On to `O=C(O)Cn1cc(NC(=O)c2ccc(-c3cccnc3)s2)ccc1=O` [I-205], for which the pIC50 in experiment [1] and in experiment [2] was less than 5.30 throughout.

With `O=C(O)CN1CC(NC(=O)c2cccc(-c3ccccc3)c2)CCC1=O` (centres unmarked) [I-206], the pIC50 in experiment [1] and in experiment [2] was less than 5.30 in each case.

Turning to `CSCCC(NC(=O)c1ccccc1C)C(=O)Nc1ccc(=O)n(CC(=O)O)c1` (centres unmarked) [I-208], the pIC50 in experiment [1] and in experiment [2] was less than 5.30 throughout.

Consider `O=C(O)Cn1cc(NC(=O)c2cccc(-c3ccccn3)c2)ccc1=O` [I-209], for which the pIC50 in experiment [1] and in experiment [2] was less than 5.30 each time.

`COc1ccc(/C=C/CC(=O)Nc2ccc(=O)n(CC(=O)O)c2)cc1` [I-210]: the pIC50 in experiment [1] and in experiment [2] was less than 5.30 each time.

Consider `O=C(O)Cn1cc(NC(=O)c2ccc3ccccc3c2)ccc1=O` [I-211], for which the negative logarithm of the IC50 (pIC50) in experiment [1] was 5.30 to 6.30; in experiment [2] it was less than 5.30.

Regarding `O=C(O)Cn1cc(NC(=O)c2ccc(-c3ccccc3)cc2)ccc1=O` [I-212], the pIC50 in experiment [1] was 5.30 to 6.30; in experiment [2], less than 5.30.

As for `O=C(O)C1CC(=O)N(C2CCSc3ccccc32)C1` (centres unmarked) [I-213], the pIC50 in experiment [1] and in experiment [2] was less than 5.30 each time.

As to `O=C(O)Cn1c(=O)oc2cc([N+](=O)[O-])ccc21` [I-214], the pIC50 in experiment [1] and in experiment [2] was less than 5.30 in each case.

`O=C(O)C1CCOc2ccc(Cl)cc21` (centres unmarked) [I-215]: the pIC50 in experiment [1] and in experiment [2] was less than 5.30 in each case.

For `O=C(O)C1CC(=O)N(C2CC2)C1` (centres unmarked) [I-216], the pIC50 in experiment [1] and in experiment [2] was less than 5.30 in each case.

With `CCN1C(=O)CCC(C(=O)O)C1c1cnn(C)c1` (centres unmarked) [I-217], the pIC50 in experiment [1] and in experiment [2] was less than 5.30 throughout.

Consider `COc1cccc(C2C(C(=O)O)CC(=O)N2C2CC2)c1` (centres unmarked) [I-218], for which the pIC50 in experiment [1] and in experiment [2] was less than 5.30 each time.

As to `CC(NC(=O)CCC(=O)O)C(=O)c1ccccc1` (centres unmarked) [I-219], the pIC50 in experiment [1] and in experiment [2] was less than 5.30 in each case.

With `O=C(O)C1CC(=O)N(Cc2cccnc2)C1` (centres unmarked) [I-220], the pIC50 in experiment [1] and in experiment [2] was less than 5.30 throughout.

Take `O=C(O)C1CC(=O)N(Cc2ccc(Cl)cc2)C1` (centres unmarked) [I-221]: the pIC50 in experiment [1] and in experiment [2] was less than 5.30 in each case.

For the compound `NC(=O)c1ccc(CN2C(=O)CCC2C(=O)O)cc1` (centres unmarked) [I-222], the pIC50 in experiment [1] and in experiment [2] was less than 5.30 throughout.

With `O=C(O)Cc1cnn2ccccc12` [I-223], the negative logarithm of the IC50 (pIC50) in experiment [1] and in experiment [2] was less than 5.30 in each case.

Turning to `O=C(O)CN1C(=O)Cc2ccccc21` [I-224], the pIC50 in experiment [1] and in experiment [2] was less than 5.30 in each case.

Consider `O=C(O)CCC(=O)NCc1nc2ccccc2s1` [I-225], for which the pIC50 in experiment [1] and in experiment [2] was less than 5.30 throughout.

In the case of `Cn1cc(N2CC(C(=O)O)CC2=O)cn1` (centres unmarked) [I-226], the pIC50 in experiment [1] and in experiment [2] was less than 5.30 each time.

As for `CS(=O)(=O)Nc1cccc(CC(=O)O)c1` [I-227], the pIC50 in experiment [1] and in experiment [2] was less than 5.30 each time.

As to `O=C(O)C1CC(=O)N(CCOc2ccccc2Cl)C1` (centres unmarked) [I-228], the pIC50 in experiment [1] and in experiment [2] was less than 5.30 throughout.

In the case of `O=C(O)CCN1C(=O)CCc2ccccc21` [I-229], the pIC50 in experiment [1] and in experiment [2] was less than 5.30 in each case.

For `O=C(O)C1CC(=O)N(Cc2ccccn2)C1` (centres unmarked) [I-230], the pIC50 in experiment [1] and in experiment [2] was less than 5.30 throughout.

Consider `O=C(O)CC1NC(=O)c2ccccc21` (centres unmarked) [I-231], for which the pIC50 in experiment [1] and in experiment [2] was less than 5.30 each time.

With `CC(C(=O)O)N1CCCCC1=O` (centres unmarked) [I-232], the negative-log IC50 (pIC50) in experiment [1] and in experiment [2] was less than 5.30 in each case.

With `Cn1ccc(N2CC(C(=O)O)CC2=O)n1` (centres unmarked) [I-233], the pIC50 in experiment [1] and in experiment [2] was less than 5.30 in each case.

Consider `CC1(C)CCc2c(C(=O)Nc3ccc(=O)n(CC(=O)O)c3)csc2C1` [I-234], for which the figures for the negative-log IC50 (pIC50) in experiment [1] and in experiment [2] were 5.30 to 6.30 and less than 5.30, respectively.

Take `O=C(O)Cn1cc(NC(=O)CC2Cc3ccc(Cl)cc3C2=O)ccc1=O` (centres unmarked) [I-235]: the pIC50 in experiment [1] and in experiment [2] was less than 5.30 throughout.

Turning to `O=C(O)Cn1cc(NC(=O)C2(S(=O)(=O)c3ccc(Cl)cc3)CCCC2)ccc1=O` [I-236], the pIC50 in experiment [1] and in experiment [2] was less than 5.30 in each case.

For the compound `CCN(CC)c1ccc2cc(C(=O)Nc3ccc(=O)n(CC(=O)O)c3)c(=O)oc2c1` [I-237], the pIC50 is 6.30 to 7.30 in experiment [1] and 5.30 to 6.30 in experiment [2].

With `CC(C)Cn1ccc2c(C(=O)Nc3ccc(=O)n(CC(=O)O)c3)cccc21` [I-238], the pIC50 is 6.30 to 7.30 in experiment [1] and less than 5.30 in experiment [2].

As for `O=C(O)Cn1cc(NC(=O)CCCc2ccc(C3CC3)cc2)ccc1=O` [I-239], the pIC50 is 5.30 to 6.30 in experiment [1] and less than 5.30 in experiment [2].

With `O=C(O)Cn1cc(NC(=O)c2cccc(C3CCC3)c2)ccc1=O` [I-240], the pIC50 in experiment [1] and in experiment [2] was less than 5.30 each time.

`CCCCC(=O)Nc1cncc(C(=O)Nc2ccc(=O)n(CC(=O)O)c2)c1` [I-241]: the negative-log IC50 (pIC50) in experiment [1] and in experiment [2] was less than 5.30 each time.

Turning to `O=C(O)Cn1cc(NC(=O)c2occc2CN2C(=O)Cc3ccccc32)ccc1=O` [I-242], the pIC50 in experiment [1] is 5.30 to 6.30; in experiment [2], less than 5.30.

The values above are taken from US20250214969A1, “PROTEIN DEGRADERS AND USES THEREOF” (Kymera Therapeutics, Inc., priority 2022, published 2025).
